Assay results as given in ChEMBL document CHEMBL1142783, “Hydrophobicity in the design of P2/P2' tetrahydropyrimidinone HIV protease inhibitors” (Bioorg Med Chem Lett, 2005).

target: Human immunodeficiency virus type 1 protease (Human immunodeficiency virus 1) (UniProt Q72874); assay: Concentration which reduced the concentration of HIV viral RNA by 90% from the level measured in an untreated infected culture; type: functional

| Structure (SMILES) | Log 1/IC90 |
| --- | --- |
| Nc1cccc(N2C(=O)N(c3cccc(N)c3)[C@H](Cc3ccccc3)[C@H](O)[C@H]2CCc2ccccc2)c1 | 6.44 |
| Nc1cc(N2C(=O)N(c3ccc(F)c(N)c3)[C@H](Cc3ccccc3)[C@H](O)[C@H]2CCc2ccccc2)ccc1F | 7.44 |
| N=C(NO)c1cccc(N2C(=O)N(c3cccc(/C(N)=C\O)c3)[C@H](Cc3ccccc3)[C@H](O)[C@H]2CCc2ccccc2)c1 | 7.31 |
| N#Cc1cccc(N2C(=O)N(c3cccc(C#N)c3)[C@H](Cc3ccccc3)[C@H](O)[C@H]2CCc2ccccc2)c1 | 5.8 |
| O=C1N(c2ccc(CO)cc2)[C@H](CCc2ccccc2)[C@@H](O)[C@@H](Cc2ccccc2)N1c1ccc(CO)cc1 | 5.44 |
| O=C1N(c2ccccc2)[C@H](CCc2ccccc2)[C@@H](O)[C@@H](Cc2ccccc2)N1c1ccccc1 | 5.55 |
| NC(=O)c1cc(N2C(=O)N(c3ccc(F)c(C(N)=O)c3)[C@H](Cc3ccccc3)[C@H](O)[C@H]2CCc2ccccc2)ccc1F | 6.31 |
| CNc1cccc(N2C(=O)N(c3cccc(NC)c3)[C@H](Cc3ccccc3)[C@H](O)[C@H]2CCc2ccccc2)c1 | 6.48 |
| O=C1N(c2cccc(CO)c2)[C@H](CCc2ccccc2)[C@@H](O)[C@@H](Cc2ccccc2)N1c1cccc(CO)c1 | 6.96 |
| NC(=O)c1cccc(N2C(=O)N(c3cccc(C(N)=O)c3)[C@H](Cc3ccccc3)[C@H](O)[C@H]2CCc2ccccc2)c1 | 7.46 |
| O=C1N(c2cccc(O)c2)[C@H](CCc2ccccc2)[C@@H](O)[C@@H](Cc2ccccc2)N1c1cccc(O)c1 | 6.94 |
| Nc1ccc(N2C(=O)N(c3ccc(N)c(F)c3)[C@H](Cc3ccccc3)[C@H](O)[C@H]2CCc2ccccc2)cc1F | 6.27 |
